From patent publication US20020052408A1, “Methods for protection of stratified squamous epithelium against injury by noxious substances and novel agents for use therefor” (priority 2000, published 2002) come the findings set out here.

Assay [1] has as its system rabbit esophageal epithelium. The assay can be described thus: Ussing chamber method for assessing esophageal epithelial protection against acid injury (60 mM HCl, pH 1.6, decline in electrical resistance R). The settings on record: for protective activity, Resistance Index (RI)=[(Ragent/Rcontrol)-1], RI >0.2 considered significant: 2, 4 and/or 8 mM for 15 min, 30 min and/or >30 min before 60 mM HCl pH 1.6 for 1 hour, N=1 tissue/dose, FIG. 9; for protection against acid injury after brief luminal exposure: 1 min exposure to 4 mM agent, multiple washouts over 4 hours, FIG. 5; for lowest protective dose: pH 1.6, 1 hour; for protective effect, single exposure: single 1 min exposure. Type of assay: cell-based. From the text: Previously, a test system was developed in the Ussing chamber to identify and characterize agents with cytoprotective effects against acid injury to the tissue. Briefly, the esophageal epithelium is mounted in the Ussing chamber so that acid (or acid-pepsin) could be added to the luminal bath while monitoring changes in electrical resistance (R). The changes in R are an effective means to identify damage by acid or acid-pepsin since damage is heralded by an increase in paracellular permeability and this reflected by a decline in R. In effect, the ability of an agent or compound to prevent the acid-induced decline in R without altering luminal pH (which excludes protection being mediated by acid buffering or neutralization) is evidence for a cytoprotective effect, i.e. protection directly exerted by the agent or compound on the epithelium. Further, we previously established that the ability of an agent or compound to prevent the acid-induced decline in R in this Ussing chamber model of acid injury was an accurate predictor, and therefore surrogate marker, of its ability to protect rabbit esophageal epithelium against acid injury in vivo (U.S. Pat. Nos. 5,374,537 and 5,189,056).
(§1) New Zealand white rabbits weighing between 8-9 lbs are sacrificed by administering an intravenous overdose of phenobarbital (60 mg/mL). The esophagus is excised, opened, and pinned mucosal surface down in a paraffin tray containing ice-Cold oxygenated normal Ringer's solution. The submucosa is grasped with hemostats, lifted up, and dissected free of the underlying mucosa with a scalpel. This process yields a sheet of tissue consisting of stratified squamous epithelium and a small amount of underlying connective tissue. From this tissue, four sections are cut and mounted as flat sheets between Lucite half-Chambers with an aperture of 1.13 cm^2 for measurements of potential difference (PD), short circuit current (Isc) and, from these values, calculation of transmucosal electrical resistance (R). Tissues are bathed with normal Ringer solution composed of the following (in mmol/L): Na 140; Cl 119.8; K 5.2; HCO3 25; Ca 1.2; Mg 1.2; HPO4 2.4; H2PO4 0.4; and 268 mOsm/kg water, with pH 7.5 when gassed with 95% O2/5% CO2 at 37° C. Mucosal and serosal solutions are connected to calomel and Ag—AgCl electrodes with Ringer's-agar bridges for measurements of PD and automatic short-Circuiting of the tissue with a voltage clamp (World Precision Instruments Inc., Sarasota, Fla.). Tissues are monitored continuously in the open-circuit state except for 5-10 second periods when the Isc is read. Electrical resistance (R) was calculated using Ohm's Law from the open-circuit PD and Isc.
To test the protective effect of an agent against acid injury to esophageal epithelium, 45 minutes after mounting (equilibration period), tissues paired by R had for one of the pair varying amounts of an agent added to the luminal bath while the other part of the pair received vehicle (normal Ringer solution) as control. After varying periods of exposure to the agent, 60 mM HCl was added to the luminal (mucosal) solution to reduce pH to 1.6; the pH was monitored and maintained throughout the 1 hr of exposure for all tissues to ensure uniform risk of injury. This negated any protective effect as being due to buffering by the agent. In some experiments the power of the protective effect of an agent was determined after varying periods of luminal exposure by washout prior to acid exposure, i.e. replacement of the luminal bath containing agent with normal Ringer Solution that contained only vehicle. R was then monitored before and during acidification with 60 mM HCl and the results for agent and controls presented as percent decline in R from pre-acidification values. […]

Assay [2] has as its system rabbit esophageal epithelium. In words: In vivo delivery of agent in drinking water, then Ussing chamber acid injury test (60 mM HCl, pH 1.6). The settings on record: for protective effect after in vivo delivery in drinking water: rabbit, acid on day 5. As for the experimental part: as §1
(§2) New Zealand white rabbits weighing between 8-9 lbs were given 25 ml of water containing test agent or water alone (control) to drink once each morning on 4 consecutive days. Following consumption of the 25 ml of water, the rabbits had their normal water source restored and they ate and drank normally for the remainder of each day. Twenty-four hours after the last dose, the rabbits were sacrificed by administering an intravenous overdose of phenobarbital (60 mg/mL). The esophagus was excised and processed as above to test its ability to resist acid injury upon exposure to 60 mM HCl , pH 1.6, for 1 hr. Three sections of rabbit esophageal epithelium that had been exposed to test agent and three sections exposed to water alone (control) were mounted, equilibrated and then simultaneously exposed to acid on the same day without the operator being aware of which were treated and which were control sections of epithelium. Initial R values in all experiments were similar preacidification. […] Significance was taken as a difference in values of p<0.05.

Assay [3] concerns rabbit esophageal epithelium. The assay can be described thus: In vivo delivery of agent in drinking water, then Ussing chamber acid-pepsin injury test (60 mM HCl, pH 1.6, 1 mg/ml pepsin). Conditions: FIG. 12. As to the method: as §2
FIG. 12 is a graph showing the protective effect against an acid-pepsin mixture after in vivo delivery of CDDD-1193 in drinking water. A rabbit spontaneously drank 25 ml of water containing 0.6 mg (40 μM) or 0.06 mg (4 μM) CDDD-1193 once-a-day for 4 consecutive days or water alone. On day 5, the rabbits were sacrificed and three sections of esophageal epithelium mounted in Ussing chambers from each rabbit. After equilibration in Ringer solution, all tissues were acidified by luminal addition of 60 mM HCl , pH 1.6, containing 1 mg/ml pepsin, for 1 hour. Electrical resistance, R, was monitored and plotted as percent initial R (%) at the end of 1 hour of acid-pepsin exposure. […] N=3 tissues; * p<0.05 compared to controls.

Setting [4] is: then 60 mM HCl pH 1.6 for 1 hour.
Where [5] appears, read: agent in luminal bath 30 min before and continuously during 60 mM HCl, R as % of initial R, FIG. 1, 2.

`O=S(=O)([O-])OCC(Oc1ccccc1)c1ccccc1.[Na+]` (centres unmarked) [CDDD-1185, 2-Phenoxy-2-phenylethanesulfate, sodium salt]: the “protective activity, Resistance Index (RI)=[(Ragent/Rcontrol)-1], RI >0.2 considered significant” value in assay [1] is listed as “may have significant protective activity”.

As to `O=S(=O)(O)OC[C@@H](OS(=O)(=O)O)[C@@H](Oc1ccccc1)c1ccccc1.[Na].[Na]` [CDDD-1187, (2R, 3S)-3-Phenoxy-3-phenylpropane-1,2-disulfate, disodium salt], the “protective activity, Resistance Index (RI)=[(Ragent/Rcontrol)-1], RI >0.2 considered significant” value in assay [1] is recorded as “may have significant protective activity”.

Regarding `O=S(=O)([O-])OCC(Oc1ccc(Cl)cc1S(=O)(=O)[O-])c1ccccc1.[Na+].[Na+]` (centres unmarked) [CDDD-1188, 2-(4-Chloro-2-sulfophenoxy)-2-phenylethanesulfate, disodium salt], in assay [1], the “protective activity, Resistance Index (RI)=[(Ragent/Rcontrol)-1], RI >0.2 considered significant” value is recorded as “may have significant protective activity”.

Take `O=S(=O)(O)OCC(OS(=O)(=O)O)C(Oc1ccccc1)c1ccc(N=C=S)cc1` [CDDD-1192, Disodium (2S, 3R)-3-(4-isothiocyanatophenyl)-3-phenoxypropane-1,2-disulfate]: in assay [1] (setting [4]), the “protection against acid injury after brief luminal exposure” value (from here on “protection against acid injury”) is “retain significant protection”. The compound also yielded a lowest protective dose in assay [1] (agent in luminal bath 30 min before and during 60 mM HCl, FIG. 3) of 0.004 mM.

On to `O=S(=O)(O)OC[C@H](OS(=O)(=O)O)[C@H](Oc1ccc(N=C=S)cc1)c1ccc(N=C=S)cc1.[Na].[Na]` [CDDD-1193, Disodium (2S, 3R)-3-(4-isothiocyanophenoxy)-3-(4-isothiocyanatophenyl)propane-1,2-disulfate], for which the “protective effect after in vivo delivery in drinking water” value in assay [2] (4 μM (0.06 mg in 25 ml water) once-a-day for 4 days, FIG. 10B) is reported as “significantly protective”; in assay [2] (40 μM (0.6 mg in 25 ml water) once-a-day for 4 days, FIG. 10A), “significantly protective”. The “duration of protective effects after the last dose” value in assay [2] (4 μM in drinking water once-a-day for 4 days, FIG. 10B) was “at least 24 hrs”; in assay [2] (40 μM in drinking water once-a-day for 4 days, FIG. 10A), “at least 24 hrs”. For the same compound, the “protective effect against acid-pepsin after in vivo delivery in drinking water” value in assay [3] (4 μM (0.06 mg in 25 ml water) once-a-day for 4 days) and in assay [3] (40 μM (0.6 mg in 25 ml water) once-a-day for 4 days) was “significantly protective” throughout. In addition, the “duration of protective effect against acid-pepsin after the last dose” value in assay [3] (40 μM and 4 μM in drinking water once-a-day for 4 days) is given as “at least 24 hours”. Also, the “protective effect, repeated exposures” value in assay [1] (400 nM, 1 min every 5 min times ten exposures, then 60 mM HCl pH 1.6 for 1 hour, FIG. 7) was “protective”; in assay [1] (1 μM, 1 min every 5 min times 5 or ten exposures, then 60 mM HCl pH 1.6 for 1 hour, FIG. 8) it was “cumulative with repeated exposures”. Also, the “protective effect, single exposure” value is reported as “little protection” in assay [1] (400 nM, then 60 mM HCl pH 1.6 for 1 hour, FIG. 7) and “modestly protective” in assay [1] (1 μM, then 60 mM HCl pH 1.6 for 1 hour, FIG. 8). Moreover, the “protection against acid injury” value in assay [1] (setting [4]) was “retain significant protection”. Besides, the “protective effect after brief luminal exposure” value in assay [1] (1 min exposure to 4 mM, multiple washouts over 8 hours, then 60 mM HCl pH 1.6 for 1 hour, FIG. 6) is “substantial”. The “persistence of protective effect” value in assay [1] (1 min exposure to 4 mM, repeated washes before 60 mM HCl pH 1.6, FIG. 6) was found to be 8 h. The lowest protective dose in assay [1] (agent in luminal bath 30 min before and during 60 mM HCl, FIG. 4) turned out to be 4e-05 mM.

For the compound `CC(=O)Nc1ccc(C=Cc2ccc(N=C=S)cc2S(=O)(=O)O)c(S(=O)(=O)O)c1` [SITS, 4-acetamido-4′-isothiocyanatostilbene-2-2′-disulfonic acid, reference compound], the “protective effect after in vivo delivery in drinking water” value in assay [2] (4 mM (50 mg in 25 ml water) once-a-day for 4 days, FIG. 11) was “significantly protective”. Also, the “duration of protective effects after the last dose” value in assay [2] (4 mM in drinking water once-a-day for 4 days, FIG. 11) is “at least 24 hrs”. Moreover, the “protection against acid injury” value in assay [1] (setting [4]) is “retain significant protection”. This compound also had a lowest protective dose in assay [1] (setting [5]) of 0.1 mM.

For the compound `O=S(=O)(O)OC[C@H]1O[C@@](COS(=O)(=O)O)(O[C@H]2O[C@H](COS(=O)(=O)O)[C@@H](OS(=O)(=O)O)[C@H](OS(=O)(=O)O)[C@H]2OS(=O)(=O)O)[C@@H](OS(=O)(=O)O)[C@@H]1OS(=O)(=O)O` [SOS, sucrose octasulfate, reference compound], the “protection against acid injury” value in assay [1] (setting [4]) is recorded as “retain significant protection”. The compound also yielded a lowest protective dose in assay [1] (setting [5]) of 1 mM.
